Measurements published in US6630191B1, “Aspartyl dipeptide ester derivatives and sweeteners” (Ajinomoto Co., Inc., priority 1998, dated 2003).
Marks after values point to notes of the source that are not given here.

Key:
[1] = Sensory evaluation of sweetening potency relative to sugar (4% sucrose aqueous solution); conditions: for Sweetening Potency, compensated value as optical isomer / Sweetening Potency: Relative to sweetening potency of a 4% sucrose aqueous solution; for Sweetening Potency, compensated value as optical isomer: compensated value as optical isomer (DL-homophenylalanine derivatives); for Sweetening potency (relative to sugar): sensory evaluation
Source text: For example, the sweetening potency of N-[N-[3-(3-hydroxy-4-methoxyphenyl)propyl]-L-α-aspartyl]-L-(α-methyl)phenylalanine 1-methyl ester was approximately 18,000 times (relative to sugar), that of N-[N-[3-(3-methoxy-4-hydroxyphenyl)propyl]-L-α-aspartyl]-L-(α-methy)phenylalanine 1-methyl ester was approximately 18,000 times (relative to sugar), that of N-[N-[3-(3-hydroxy-4-methoxyphenyl)propyl]-L-α-aspartyl]-3-cyclohexyl-L-alanine 1-methyl ester was approximately 25,000 times (relative to sugar), that of N-[N-[3-(3-methoxy-4-hydroxyphenyl)propyl]-L-α-aspartyl]-3-cyclohexyl-L-alanine 1-methyl ester was approximately 25,000 times (relative to sugar), that of N-[N-[3-(3-methyl-4-hydroxyphenyl)propyl]-L-(α-aspartyl]-3-cyclohexyl-L-alanine 1-methyl ester was approximately 40,000 times (relative to sugar).
With respect to the aspartyl dipeptide derivatives (represented by the following general formula (5)) formed, the structures and the results of the sensory evaluation are shown in Table 1. [drawing 4]

[2] = reported in WO 94/11391; cited from earlier work

Structure (SMILES) | Sweetening potency (relative to sugar) [1] | Sweetening Potency [1] | also measured
COC(=O)C(CCc1ccccc1)NC(=O)[C@H](CC(=O)O)NCCCc1ccc(OC)c(O)c1 (mixture of isomers) [Compound 7, N-[N-[3-(3-Hydroxy-4-methoxyphenyl)propyl]-L-α-aspartyl]-DL-homophenylalanine 1-Methyl Ester] | 1,000 times |  | Sweetening Potency, compensated value as optical isomer [1]: 2000^2)
COC(=O)C(CCc1ccccc1)NC(=O)[C@H](CC(=O)O)NCCCc1ccc(O)c(OC)c1 (mixture of isomers) [Compound 8, N-[N-[3-(3-Methoxy-4-hydroxyphenyl)propyl]-L-α-aspartyl]-DL-homophenylalanine 1-Methyl Ester] | 1,200 times |  | Sweetening Potency, compensated value as optical isomer [1]: 2400^2)
COC(=O)[C@](C)(Cc1ccccc1)NC(=O)[C@H](CC(=O)O)NCCCc1ccc(OC)c(O)c1 [Compound 1, N-[N-[3-(3-Hydroxy-4-methoxyphenyl)propyl]-L-α-aspartyl]-L-(α-methyl)phenylalanine 1-Methyl Ester] | 18,000 times | 18000 | Sweetening potency (relative to sugar) ([1]; listed as N-[N-[3-(3-hydroxy-4-methoxyphenyl)propyl]-L-α-aspartyl]-L-(α-methyl)phenylalani): approximately 18,000 times
COC(=O)[C@](C)(Cc1ccccc1)NC(=O)[C@H](CC(=O)O)NCCCc1ccc(O)c(OC)c1 [Compound 2, N-(N-(3-(3-Methoxy-4-hydroxyphenyl)propyl]-L-α-aspartyl]-L-(α-methyl)phenylalanine 1-Methyl Ester] | 18,000 times | 18000 | Sweetening potency (relative to sugar) ([1]; listed as N-[N-[3-(3-methoxy-4-hydroxyphenyl)propyl]-L-α-aspartyl]-L-(α-methy)phenylalanin): approximately 18,000 times
COC(=O)[C@H](CC1CCCCC1)NC(=O)[C@H](CC(=O)O)NCCCc1ccc(OC)c(O)c1 [Compound 3, N-[N-[3-(3-Hydroxy-4-methoxyphenyl)propyl]-L-α-aspartyl]-3-cyclohexyl-L-alanine 1-Methyl Ester] | 25,000 times | 25000 | Sweetening potency (relative to sugar) ([1]; listed as N-[N-[3-(3-hydroxy-4-methoxyphenyl)propyl]-L-α-aspartyl]-3-cyclohexyl-L-alanine): approximately 25,000 times
COC(=O)[C@H](CC1CCCCC1)NC(=O)[C@H](CC(=O)O)NCCCc1ccc(O)c(OC)c1 [Compound 4, N-[N-(3-(3-Methoxy-4-hydroxyphenyl)propyl]-L-α-aspartyl]-3-cyclohexyl-L-alanine 1-Methyl Ester] | 25,000 times | 25000 | Sweetening potency (relative to sugar) ([1]; listed as N-[N-[3-(3-methoxy-4-hydroxyphenyl)propyl]-L-α-aspartyl]-3-cyclohexyl-L-alanine): approximately 25,000 times
COC(=O)C(NC(=O)C(CC(=O)O)NCCCc1ccc(OC)c(O)c1)c1ccccc1 [Compound 5, N-[N-[3-(3-Hydroxy-4-methoxyphenyl)propyl]-L-α-aspartyl]-L-phenylglycin 1-Methyl Ester] | 1,600 times | 1600 | 
COC(=O)C(NC(=O)C(CC(=O)O)NCCCc1ccc(O)c(OC)c1)c1ccccc1 [Compound 6, N-[N-[3-(3-Methoxy-4-hydroxyphenyl)propyl]-L-α-aspartyl]-L-phenylglycin 1-Methyl Ester] | 700 times | 700 | 
CCCOC(=O)[C@@H](C)NC(=O)[C@H](CC(=O)O)NCCCc1ccc(OC)c(O)c1 [Compound 9, N-[N-[3-(3-Hydroxy-4-methoxyphenyl)propyl]-L-α-aspartyl]-D-alanine 1-n-Propyl Ester] | 800 times | 800 | 
CCCOC(=O)[C@@H](C)NC(=O)[C@H](CC(=O)O)NCCCc1ccc(O)c(OC)c1 [Compound 10, N-[-[3-(3-Methoxy-4-hydroxyphenyl)propyl]-α-aspartyl]-D-alanine 1-n-Propyl Ester] | 600 times | 600 | 
COC(=O)C(C)(Cc1ccccc1)NC(=O)C(CC(=O)O)NCCCc1ccc(OC)cc1O [Compound 11, N-[N-[3-(2-Hydroxy-4-methoxyphenyl)propyl]-L-α-aspartyl]-L-(α-methyl) Phenylalanine 1-Methyl Ester] | 15,000 times | 15000 | 
COC(=O)[C@H](CC1CCCCC1)NC(=O)[C@H](CC(=O)O)NCCCc1ccc(O)c(C)c1 [Compound 12, N-[N-(3-(3-Methyl-4-hydroxyphenyl)propyl]-L-α-aspartyl]-3-cyclohexyl-L-anine 1-Methyl Ester] | 40,000 times | 40000 | Sweetening potency (relative to sugar) ([1]; listed as N-[N-[3-(3-methyl-4-hydroxyphenyl)propyl]-L-(α-aspartyl]-3-cyclohexyl-L-alanine): approximately 40,000 times
Cc1ccc(CCCN[C@@H](CC(=O)O)C(=O)N[C@@H](CC2CCCCC2)C(=O)O)c(O)c1 [Compound 13] | 25,000 times | 25000 | 
COC(=O)[C@H](Cc1ccccc1)NC(=O)[C@H](CC(=O)O)NCCC(C)(C)C [N-[N-(3,3-dimethylbutyl)-L-α--aspartyl]-L-phenylalanine 1-methyl ester] |  |  | Sweetening potency, times that of sugar [2]: 10,000 times
COC(=O)C(Cc1ccc(O)cc1)NC(=O)C(CC(=O)O)NCCC(C)(C)C [N-[N-(3,3-dimethylbutyl)-L-α-aspartyll-L-tyrosine 1-methyl ester] |  |  | Sweetening potency, times that of sugar [2]: 4,000 times
COC(=O)[C@H](Cc1ccccc1)NC(=O)[C@H](CC(=O)O)NCCCc1ccccc1 [N-[N-(3-phenylpropyl)-L-α-aspartyl]-L-phenylalanine 1-methyl ester] |  |  | Sweetening potency, times that of sugar [2]: 1,500 times
COC(=O)[C@H](Cc1ccccc1)NC(=O)[C@H](CC(=O)O)NCCCc1ccc(O)c(OC)c1 [N-[N-[3-(3-methoxy-4-hydroxyphenyl)propyl]-L-α-aspartyl]-L-phenylalanine 1-methyl ester] |  |  | Sweetening potency, times that of sugar [2]: 2,500 times
